Experiment [1] concerns alpha-SG-null C57BL/6 mouse. Format: in vivo. As for the experimental part:
FIG. 1: alpha-sarcoglycan (SG)-null C57BL/6 mice were treated for 30 days with the indicated drugs, or combinations of drugs incorporated into the diet as described in the Methods. Serum creatin kinase (CK) concentrations were measured from mouse blood samples obtained by tail vein withdrawal using the indirect colorimetric assay (Roche Diagnostics), following standard procedures.
(§1) The alpha-SG-null C57BL/6 mouse, one of the most severe models of muscular dystrophy was used. In some experiments wild type (wt) C57BL/6 mouse were used as internal further control.
(§2) In the in vivo experiments the drugs were administered daily in the diet to three months old animals for 30 days. The dose of aspirin was 80 mg/kg, the dose of ISMN was 35 mg/kg and that of ISDN was 10 mg/kg, while the dose of ibuprofen was 15 mg/kg. Prednisolone was used as reference drug at the dose of 2 mg/kg. When combinations of drugs were used, the drugs were both incorporated in the same diet. Control animals received the same diet without any drug incorporation.
Quantitative determination of creatine kinase activity in serum of control and drug treated-animals was measured using creatine kinase reagent (Randox, CK110), according to the manufacturer's instructions. Blood was collected from tail vein and serum obtained after centrifugation at 13000 rpm for 10 minutes was stored at −80° C. before measurements.

In experiment [2] the test system is alpha-SG-null C57BL/6 mouse. Description: Free wheel running (voluntary running wheel activity). As to conditions: alpha-SG-null mice, drugs daily in the diet, 30 days of treatment, n = 4. Format: in vivo. The protocol:
FIG. 2: alpha-SG-null C57BL/6 mice were treated for 30 days with the indicated drugs, or combinations of drugs incorporated into the diet as described in the Methods. Locomotor performance was measured through the Running Wheel Activity, to this end mice were housed individually in cages equipped with a Trixie running wheel. Each wheel revolution was registered through a magnetic switch, which was connected to a counter. The number of revolutions was recorded daily for 6 days. […] The results of 9 experiments ±S.E.M of Running Wheel Activity measured in wild type (wt) C57BL/6 mice are also reported.
as §1, §2
Voluntary wheel running was used as the exercise paradigm to avoid any physiological changes that may occur due to the stress of forced treadmill running. Mice were housed individually in cages equipped with a Trixie running wheel. Each wheel revolution was registered through a magnetic switch, which was connected to a counter. The number of revolutions was recorded daily for 6 days.

For experiment [3], the system named is Satellite cells from alpha-SG-null C57BL/6 mice. Put plainly: Fusion index of differentiating satellite cells. Format: cell-based, mouse. As to conditions: for Fusion index: n = 4; for Fusion index compared to control cells, in words: satellite cells, 48 and 72 h. The protocol:
FIG. 6: Satellite cells from alpha-SG-null C57BL/6 mice were isolated from 3-5 days old mice and induced to differentiate in the presence of the indicated drugs as described in the methods. Fusion index was determined at 48 and 72 h as the number of nuclei in sarcomeric myosin-expressing cells with more than 2 nuclei vs the total number of nuclei.
In the in vitro experiments, the drugs were applied to satellite cells at the concentration of 100 μM for ISMN, 50 μM for ISDN, 10 μM for ibuprofen, 50 μM for aspirin and 30 μM for prednisolone. When combinations of drugs were used, the drugs were administered at the same time.
Satellite cells were isolated from 3-5 days old mice as described previously with some modifications. In particular, after 3 days from isolation, proliferating myoblasts were harvested, counted, and plated on tissue culture plastic dishes coated with 1 mg/ml type I collagen (SIGMA, C9791). […] Preparations showing less than 90% myogenic cells were discarded. […] Growth medium contained IMDM medium supplemented with 20% Fetal Bovine Serum, 3% Chick Embryo Extract, 100 U/ml Penicillin, 100 μg/ml Streptomycin, 50 μg/ml Gentamycin. Differentiation medium contained IMDM medium supplemented with 2% Horse Serum, 100 U/ml Penicillin, 100 μg/ml Streptomycin. Fusion index was determined as the number of nuclei in sarcomeric myosin-expressing cells with more than 2 nuclei vs the total number of nuclei.
Satellite cells isolated from newborn alpha-SG-null C57BL/6 mice and plated at low density (6×10^3 cells/cm^2) were maintained for 48 h in growth medium, and then switched to the differentiating medium in the presence or absence of ISMN, ISDN, aspirin, ibuprofen, ISMN plus aspirin or ISDN plus ibuprofen.

Experiment [4] deals with alpha-SG-null C57BL/6 mouse. Description: In vivo experiments: histological, functional and biochemical alterations overall. As to conditions: alpha-SG-null mice, 30 days in the diet, vs control. The protocol:
as §1, §2
The effects of the different drugs and their combination on the number of inflammatory infiltrates, the number of necrotic fibers per section, creatine kinase activity and free wheel distance ran are shown in Table I.

The test system of experiment [5] is alpha-SG-null C57BL/6 mouse. Description: Histology: number of inflammatory infiltrates in muscle sections. Format: in vivo. The note with it: alpha-SG-null mice, drugs daily in the diet, 30 days of treatment, n = 4. As for the experimental part:
FIG. 3: alpha-SG-null C57BL/6 mice were treated for 30 days with the indicated drugs, or combinations of drugs incorporated into the diet as described in the Methods. Tibialis anterior muscles were dissected and frozen in liquid nitrogen-cooled isopentane. The number of inflammatory infiltrates was measured on Azan-Mallory-stained serial muscle sections.
as §1, §2
(§3) Diaphragm and tibialis anterior of untreated and drug-treated mice were isolated and included in Killik® frozen section medium, quickly frozen and cut into 8-μm thick sections with the muscle fibres oriented transversely using a cryostat. Sections were stained with either Hematoxylin&Eosin or Azan Mallory, to evaluate the number of inflammatory infiltrates and necrotic fibres ([…] sections per tissue), respectively.

Experiment [6] deals with alpha-SG-null C57BL/6 mouse. Description: Histology: number of necrotic fibres in muscle sections. Type of experiment: in vivo. As to conditions: alpha-SG-null mice, drugs daily in the diet, 30 days of treatment, n = 4. As for the experimental part:
FIG. 4: alpha-SG-null C57BL/6 mice were treated for 30 days with the indicated drugs, or combinations of drugs incorporated into the diet as described in the Methods. Diaphragm muscles were dissected, frozen in liquid nitrogen-cooled isopentane and stained with hematoxilin & eosin according to standard procedures.
as §1, §2, §3

Setting [7] is: serum, alpha-SG-null mice, drugs daily in the diet, 30 days of treatment, n = 4.
Where [8] appears, read: 48 hours of treatment in differentiating medium.
Where [9] appears, read: 72 hours of treatment in differentiating medium.

Structures are written as SMILES. Where two headings read alike, the source gives them in different places.

The values that follow come from patent publication US8247460B2, “Method of treatment for muscular dystrophy” (priority 2006, dated 2012).

As for `CC(=O)Oc1ccccc1C(=O)O` [Aspirin], the CK level in experiment [1] (setting [7]) amounted to 841 ± 33 U/l. Also, the Free wheel test in experiment [2] was 0.15 ± 0.02 km/24 h. Moreover, the Fusion index in experiment [3] (setting [8]) is 20 ± 1.9%; in experiment [3] (setting [9]), 43 ± 1.7%. Moreover, the “Effect on the parameters measured (histological, functional and biochemical alterations), in words” value in experiment [4] is on record as “did not have significant effects”. In experiment [5], the “N° of inflammatory infiltrates/sections” value worked out at 122.2 ± 17.1°. In addition, the “N° of necrotic fibres/section” value in experiment [6] is on record as 249.0 ± 32.1.
Turning to `O=[N+]([O-])O[C@H]1CO[C@H]2[C@@H]1OC[C@H]2O[N+](=O)[O-]` [ISDN, isosorbide dinitrate], the “Fusion index compared to control cells, in words” value in experiment [3] is reported as “effective on their own”. In addition, the “Effect on the parameters measured (histological, functional and biochemical alterations), in words” value in experiment [4] is “did not have significant effects”.
As for `O=[N+]([O-])O[C@@H]1CO[C@H]2[C@@H]1OC[C@@H]2O` [ISMN, isosorbide-mononitrate], the CK level in experiment [1] (mouse, in vivo) was 787 ± 33 U/l. For the same compound, the Free wheel test in experiment [2] came out at 0.18 ± 0.03 km/24 h. Further, the Fusion index in experiment [3] (setting [8]) was found to be 41 ± 2.2 %; in experiment [3] (setting [9]), 76 ± 3.3 %. In addition, in experiment [3], the “Fusion index compared to control cells, in words” value is “effective on their own”. In addition, the “Effect on the parameters measured (histological, functional and biochemical alterations), in words” value in experiment [4] is “did not have significant effects”. For the same compound, the “N° of inflammatory infiltrates/sections” value in experiment [5] worked out at 190.2 ± 33.2. Besides, the “N° of necrotic fibres/section” value in experiment [6] worked out at 238.0 ± 27.2.
Regarding `CC(C)Cc1ccc(C(C)C(=O)O)cc1` (stereo not drawn) [Ibuprofen], the CK level in experiment [1] (setting [7]) came to 851 ± 41 U/l. The Free wheel test in experiment [2] was determined as 0.12 ± 0.01 km/24 h. Also, the Fusion index in experiment [3] (setting [8]) came out at 21 ± 1.2%; in experiment [3] (setting [9]), 42 ± 2.3%. The “Effect on the parameters measured (histological, functional and biochemical alterations), in words” value in experiment [4] is on record as “did not have significant effects”. The “N° of inflammatory infiltrates/sections” value in experiment [5] was 116.1 ± 11.1°. Besides, the “N° of necrotic fibres/section” value in experiment [6] was 269.0 ± 34.3.
Regarding `C[C@]12C=CC(=O)C=C1CC[C@@H]1[C@@H]2[C@@H](O)C[C@@]2(C)[C@H]1CC[C@]2(O)C(=O)CO` [Prednisolone], in experiment [1] (setting [7]), the CK level turned out to be 757.6 ± 37.5 U/l. Also, in experiment [2], the Free wheel test worked out at 0.38 ± 0.1 km/24 h. The Fusion index is on record as 18 ± 0.9% in experiment [3] (setting [8]) and 41 ± 2.0% in experiment [3] (setting [9]). Also, the “N° of inflammatory infiltrates/sections” value in experiment [5] was 103.4 ± 12.0. Further, the “N° of necrotic fibres/section” value in experiment [6] amounted to 217.3 ± 37.3.
